Tested on: Dihydrofolate reductase (Enterococcus faecium)

Row | Compound | -Delta G [kcal/mol]
1 | Nc1nc(N)c2c(S(=O)(=O)c3ccc(Cl)c(Cl)c3)cccc2n1 | 9
2 | Sc1nc(S)c2cc(Sc3ccc4ccccc4c3)ccc2n1 | 6
3 | Nc1ncnc2ccc(Sc3ccc4ccccc4c3)cc12 | 6.5
4 | Oc1nc(S)nc2ccc(Sc3ccc4ccccc4c3)cc12 | 6.2
5 | Nc1nc(N)c2c(Sc3ccc4ccccc4c3)cccc2n1 | 10.9
6 | Nc1nc(S)nc2ccc(Sc3ccc4ccccc4c3)cc12 | 7.4
7 | Nc1nc(N)c2cc(S(=O)(=O)c3ccc4ccccc4c3)ccc2n1 | 12.4
8 | Nc1nc(N)c2cc(Sc3ccc(Cl)c(Cl)c3)ccc2n1 | 12.2
9 | O=c1[nH]c(=S)c2cc(Sc3ccc4ccccc4c3)ccc2[nH]1 | 6.8
10 | CCOC(=O)c1ccc(CNc2ccc3nc(N)nc(O)c3c2Cl)cc1 | 9.3
11 | Nc1nc(N)c2cc(Sc3cccc(C(F)(F)F)c3)ccc2n1 | 13.4
12 | Nc1nc(N)c2c(Sc3ccc(Cl)c(Cl)c3)cccc2n1 | 9.9
13 | Nc1nc(O)nc2ccc(Sc3ccc4ccccc4c3)cc12 | 6.9
14 | O=c1[nH]c(=O)c2cc(Sc3ccc4ccccc4c3)ccc2[nH]1 | 6.9
15 | Nc1nc(N)c2c([S+]([O-])c3ccc4ccccc4c3)cccc2n1 (stereo not drawn) | 6.9
16 | Nc1nc(O)c2cc([S+]([O-])c3ccc4ccccc4c3)ccc2n1 (stereo not drawn) | 8.2
17 | Nc1nc(N)c2c(CSc3ccc(Cl)cc3)cccc2n1 | 10.9

Row | Compound | -Delta G [kcal/mol]
18 | Nc1nc(N)c2c(/C=C/c3ccc4ccccc4c3)cccc2n1 | 10.7
19 | Nc1nc(S)c2cc(Sc3ccc4ccccc4c3)ccc2n1 | 9.3
20 | Nc1nc(N)c2cc([S+]([O-])c3ccc4ccccc4c3)ccc2n1 (stereo not drawn) | 12.8
21 | Nc1nc(O)c2cc(S(=O)(=O)c3ccc4ccccc4c3)ccc2n1 | 9.6
22 | Nc1nc(N)c2c([S+]([O-])c3ccc(Cl)c(Cl)c3)cccc2n1 (stereo not drawn) | 7.3
23 | Nc1nc(O)c2cc(S(=O)(=O)c3ccc(Cl)c(Cl)c3)ccc2n1 | 8.2
24 | Nc1nc(O)c2c(Sc3ccc4ccccc4c3)cccc2n1 | 7.4
25 | Nc1nc(O)c2cc(Sc3ccc4ccccc4c3)ccc2n1 | 10.2
26 | Nc1nc(N)c2c(S(=O)(=O)c3ccc4ccccc4c3)cccc2n1 | 6.5
27 | Nc1nc(O)c2c(S(=O)(=O)c3ccc4ccccc4c3)cccc2n1 | 9
28 | Nc1nc(N)c2c(/C=C\c3ccc4ccccc4c3)cccc2n1 | 11.1
29 | Nc1nc(N)c2cc(S(=O)(=O)c3ccc(Cl)c(Cl)c3)ccc2n1 | 13.4
30 | Nc1ncnc2ccc([S+]([O-])c3ccc4ccccc4c3)cc12 (stereo not drawn) | 7.2
31 | Nc1nc(N)c2c(CCc3ccc4ccccc4c3)cccc2n1 | 11.9
32 | Nc1ncnc2ccc(S(=O)(=O)c3ccc4ccccc4c3)cc12 | 5.8
33 | Nc1nc(S)c2cc(S(=O)(=O)c3ccc4ccccc4c3)ccc2n1 | 8
34 | Nc1nc(O)c2cc(Sc3ccc(Cl)c(Cl)c3)ccc2n1 | 9.1

Results, then the compound that gave them:

Row | -Delta G [kcal/mol] | Compound
35 | 6.5 | Cc1c(NCc2ccc(C(=O)O)cc2)ccc2nc(N)nc(O)c12
36 | 7.2 | Nc1nc(O)c2cc(NCc3ccc(C(=O)O)cc3)ccc2n1
37 | 12.3 | Nc1nc(N)c2c(Cl)c(CNc3ccc(C(=O)O)cc3)ccc2n1
38 | 12.8 | CCOC(=O)c1ccc(NCc2ccc3nc(N)nc(N)c3c2Cl)cc1
39 | 10.6 | CCOC(=O)c1ccc(NCc2ccc3nc(N)nc(O)c3c2)cc1
40 | 7.1 | CCOC(=O)c1ccc(CNc2ccc3nc(N)nc(O)c3c2C)cc1
41 | 12.3 | CCOC(=O)c1ccc(NCc2ccc3nc(N)nc(N)c3c2C)cc1
42 | 11.8 | Cc1c(CNc2ccc(C(=O)O)cc2)ccc2nc(N)nc(N)c12
43 | 11 | CCOC(=O)c1ccc(CNc2ccc3nc(N)nc(N)c3c2)cc1
44 | 13 | Nc1nc(N)c2cc(CNc3ccc(C(=O)O)cc3)ccc2n1
45 | 8.8 | Nc1nc(O)c2cc(CNc3ccc(C(=O)O)cc3)ccc2n1
46 | 11.4 | CCCCOC(=O)c1ccc(NCc2ccc3nc(N)nc(N)c3c2Cl)cc1
47 | 8.6 | CCOC(=O)c1ccc(CNc2ccc3nc(N)nc(O)c3c2)cc1
48 | 13.1 | CCOC(=O)c1ccc(CNc2ccc3nc(N)nc(N)c3c2C)cc1
49 | 12.1 | CCCCOC(=O)c1ccc(NCc2ccc3nc(N)nc(N)c3c2C)cc1
50 | 12.7 | Cc1c(CNc2ccc(C(=O)NC(CC(=O)O)C(=O)O)cc2)ccc2nc(N)nc(N)c12 (stereo not drawn)
51 | 12.2 | CCOC(=O)c1ccc(CNc2ccc3nc(N)nc(N)c3c2Cl)cc1
52 | 11.2 | CCCCOC(=O)c1ccc(NCc2ccc3nc(N)nc(N)c3c2)cc1
53 | 11.4 | CCOC(=O)c1ccc(NCc2ccc3nc(N)nc(N)c3c2)cc1

Reference: ChEMBL document CHEMBL1122106, “Quantitative structure-activity relationship by distance geometry: quinazolines as dihydrofolate reductase inhibitors” (J Med Chem, 1982)
